Measurements published in the NIST ThermoML archive (doi:10.1016/j.jct.2007.10.006).
± gives the expanded uncertainty stated by the source.

Conditions: Crystal; thermal analyzer

`Oc1ccc(/C=C/c2cc(O)cc(O)c2)cc1` [5-[(1E)-2-(4-hydroxyphenyl)-ethenyl]-1,3-benzenediol] gave a Normal melting temperature of 268.1 ± 1 °C.
